According to PubChem BioAssay (NCI):
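Values below derive from 48-hour exposures of cells grown in 96-well plates, with endpoints linearly interpolated between the two concentrations bracketing the appropriate inhibition level. TGI: concentration producing complete growth inhibition.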

Legend:
Experiment in all cases: NCI tumour cell line growth inhibition, 48 h
[1] = system: NCI-H460 lung
[2] = system: SF-539 CNS
[3] = system: SNB-75 CNS
[4] = system: UACC-257 melanoma
[5] = system: OVCAR-5 ovarian
[6] = system: HCT-116 colon
[7] = system: OVCAR-4 ovarian
[8] = system: SNB-19 CNS
[9] = system: LOX IMVI melanoma
[10] = system: DMS 273 small cell lung
[11] = system: DLD-1 colon
[12] = system: M14 melanoma
[13] = system: SNB-78 CNS
[14] = system: SR leukemia
[15] = system: IGROV1 ovarian
[16] = system: HCC-2998 colon
[17] = system: M19-MEL melanoma
[18] = system: K-562 leukemia
[19] = system: KM20L2 colon
[20] = system: XF 498 CNS
[21] = system: A498 renal
[22] = system: DMS 114 small cell lung
[23] = system: U251 CNS
[24] = system: EKVX NSCLC
[25] = system: 786-0 renal
[26] = system: LXFL 529 NSCLC
[27] = system: SK-MEL-5 melanoma
[28] = system: SN12C renal
[29] = system: NCI-H23 lung
[30] = system: HL-60(TB) leukemia
[31] = system: TK-10 renal
[32] = system: HOP-92 NSCLC
[33] = system: A549 NSCLC
[34] = system: HT29 colon
[35] = system: UACC-62 melanoma
[36] = system: SK-MEL-2 melanoma
[37] = system: NCI-H522 lung
[38] = system: SF-295 CNS
[39] = system: SF-268 CNS
[40] = system: HCT-15 colon
[41] = system: RXF 393 renal
[42] = system: ACHN renal
[43] = system: KM12 colon
[44] = system: UO-31 renal
[45] = system: OVCAR-8 ovarian
[46] = system: OVCAR-3 ovarian
[47] = system: SK-MEL-28 melanoma
[48] = system: HOP-62 NSCLC
[49] = system: CCRF-CEM leukemia
[50] = system: RPMI-8226 leukemia
[51] = system: NCI-H226 lung
[52] = system: MOLT-4 leukemia
[53] = system: SW-620 colon
[54] = system: MALME-3M melanoma
[55] = system: COLO 205 colon
[56] = system: SK-OV-3 ovarian
[57] = system: CAKI-1 renal

Measured: TGI

CC1=C(C(=O)NCc2ccccc2)C(c2ccc(Cl)c(Cl)c2)C(C(=O)NCc2ccccc2)=C(C)N1
not listed: [55] | [56] | [57]
> 100 µM: all other assays above

NC1C=NNC1=O (stereo unspecified)
not listed: [1] | [6] | [14] | [17] | [21] | [25] | [32] | [46] | [48] | [51]
> 100 µM: all other assays above
